Laboratory results reported in patent EP1057829A1, “Novel compounds and pharmaceutical compositions containing the same” (The Jordanian Pharmaceutical Manufacturing and Medical …, priority 1999, dated 2000).

Key:
Format in all cases: in vivo
male rats = assay: Penile erection of male rats after oral administration, observed for 2 h; settings: for ED50: Rattus norvegicus, 2 h, erectile response, ED50 values significantly different with a 95% confidence interval, read-out: Calculated ED50; for responding rats # / responding rats %: 10 rats tested, penile erection monitored during 2 h
Method: The purpose of this study was to compare the biological activity of compound 7a with that of sildenafil. In particular, the respective ED50-value (ED=effective dose), erection episodes and penile erection indices of said compounds in the treatment of male rats were determined. The penile erection index is an established means of determining the erection promoting properties of a substance (see e.g. Ang, H.H., Sim, M.K., Pharm. Sci., 3, 117-119 (1997) and references cited therein).
In these experiments, the compounds 7a and sildenafil were administered to male rats orally. The doses used for both drugs were 0.0781, 0.1562, 0.3125 and 0.625 mg/kg body weight. Sildenafil was dissolved in distilled water, whereas 7a was dissolved in 1% HCl solution (aq). Control animals were administered with the vehicles only, i.e. distilled water or the 1% HCl solution. During the experiments, the rats were placed in glass cages for observation and had access to food and water. During 2 h after administration of the investigated compounds, the penile erection of the rats was monitored.

[1] = Preliminary toxicity studies in rats; settings: rat, in vivo, read-out: tolerated dose without any detrimental effects
Method: (§1) Moreover, according to preliminary toxicity studies in rats, the compound 7a is tolerated up to a dose of about […] body weight without any detrimental effects. […] Thus, high doses of 7a provide a particularly efficient means for treatment of erectile dysfunction.

rats = assay: Preliminary toxicity studies in rats
Method: as §1

SMILES	ED50 (male rats; male rats) [mg/kg]	responding rats # (male rats; dose 0.0781 mg/kg)	responding rats % (male rats; dose 0.0781 mg/kg) [%]	responding rats # (male rats; dose 0.1562 mg/kg)	responding rats % (male rats; dose 0.1562 mg/kg) [%]	responding rats # (male rats; dose 0.3125 mg/kg)	responding rats % (male rats; dose 0.3125 mg/kg) [%]	responding rats # (male rats; dose 0.6250 mg/kg)	responding rats % (male rats; dose 0.6250 mg/kg) [%]	total number of observed erection episodes (male rats; male rats, 0.0781-0.625 mg/kg, comparison with sildenafil (Fig. 1))	calculated penile erection indices (male rats; male rats, 0.0781-0.625 mg/kg, comparison with sildenafil (Fig. 2))	NOAEL [1] [mg/kg]	toxicity and side-effects (rats)
CCCc1nn(C)c2c(=O)[nH]c(-c3cc(S(=O)(=O)N4CCN(C)CC4)cc4c3OCC4)nc12 [Compound 7a, 5-[2,3-dihydro-5-(4-methylpiperazin-1-ylsulfonyl)-7-benzofuryl]-1-methyl-3-propyl-6,7-dihydro-1H-pyrazolo[4,3-d]pyrimidin-7-one]	0.247	3	30	4	40	4	40	8	80	superior to sildenafil, especially at higher doses	superior to sildenafil, especially at higher doses	~0.35	completely nontoxic and free from undesirable side-effects
CCCc1nn(C)c2c(=O)[nH]c(-c3cc(S(=O)(=O)N4CCN(C)CC4)ccc3OCC)nc12 [Sildenafil, sildenafil, reference compound]	0.284	3	30	3	30	5	50	7	70	–	–	–	–
